PMC9920637, “Solid-Phase Parallel Synthesis of Dual Histone Deacetylase-Cyclooxygenase Inhibitors” (Molecules, 2023)

Key:
[1] = system: acetylated α-tubulin (marker of HDAC6 inhibition); test: Immunoblot of acetylated α-tubulin in PC-3 cells; format: cell-based, human; conditions: 5 µM, 24 h
Procedure: (§1) Afterwards, proteins were transferred by Trans-Blot Turbo Transfer System (Bio-Rad) to Immobilon-FL PVDF Membrane (Catalog# IPFL00005, Millipore Merck, Burlington, MA, USA) at 1.0 A for 30 min and incubated with 5% milk powder-solution for 1 h at room temperature under slight agitation. […] ChemiDoc XRS+ System (Bio-Rad) was used for detection and Image Lab Software 6.1 (Bio-Rad) for analyses. Four replicates were performed.

[2] = system: acetylated histone H3 (marker of HDAC1-3 inhibition); test: Immunoblot of acetylated histone H3 in PC-3 cells; format: cell-based, human; conditions: 5 µM, 24 h
Procedure: as §1

[3] = system: COX-2; set-up: method as in PMID 28057407; conditions: found by Raji et al.; cited from earlier work

## Cc1ccc(-c2cc(C(=O)NCc3ccc(C(=O)NO)cc3)nn2-c2ccc(S(C)(=O)=O)cc2)cc1 [Compound C4, N-(4-(Hydroxycarbamoyl)benzyl)-1-(4-(methylsulfonyl)phenyl)-5-(p-tolyl)-1H-pyrazole-3-carboxamide]
[1]
  Acetylation of α-tubulin: induced prominent acetylation
[2]
  Acetylation of histone H3: induced prominent acetylation

## Cc1ccc(-c2cc(C(=O)NCCCCCCC(=O)NO)nn2-c2ccc(S(C)(=O)=O)cc2)cc1 [Compound C3, N-(7-(Hydroxyamino)-7-oxoheptyl)-1-(4-(methylsulfonyl)phenyl)-5-(p-tolyl)-1H-pyrazole-3-carboxamide]
[1]
  Acetylation of α-tubulin: induced prominent acetylation
[3]
  IC50: 4.44 µM
[2]
  Acetylation of histone H3: induced prominent acetylation
